Data as given in paper PMC9653409, “Generative deep learning enables the discovery of a potent and selective RIPK1 inhibitor” (Nature Communications, 2022).

Legend:
Test in all cases: Kinase inhibitory activity profiling of RI-962@10 µM (406 kinases, Eurofins)
Type in all cases: biochemical
[1] = biological target: panel of human kinases (kinase named in endpoint) (Homo sapiens, UniProt Q5MAI5); conditions: 10 µM; read-out: Activity (%), CDKL4(h)
In short: (§1)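 Radiometric filter-binding kinase assays: enzyme preincubated 15 min with compound in 8 mM MOPS pH 7.0, 0.2 mM EDTA, 250 μM peptide substrate, 10 mM magnesium acetate, 10 μM [γ-33P]-ATP. Reaction started with Mg/ATP, run 40 min at room temperature, stopped with phosphoric acid; 33P incorporation read by scintillation counting. Other kinases by similar protocols.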

[2] = biological target: panel of human kinases (kinase named in endpoint) (Homo sapiens, UniProt Q8TF76); conditions: 10 µM; read-out: Activity (%), Haspin(h)
In short: as §1

[3] = biological target: panel of human kinases (kinase named in endpoint) (Homo sapiens, UniProt Q00534); conditions: 10 µM; read-out: Activity (%), CDK6/cyclinD3(h)
In short: as §1

[4] = biological target: panel of human kinases (kinase named in endpoint) (Homo sapiens, UniProt O00443); conditions: 10 µM; read-out: Activity (%), PI3KC2a(h)
In short: as §1

[5] = biological target: panel of human kinases (kinase named in endpoint) (Homo sapiens, UniProt O00506); conditions: 10 µM; read-out: Activity (%), STK25(h)
In short: as §1

[6] = biological target: panel of human kinases (kinase named in endpoint) (Homo sapiens, UniProt O00444); conditions: 10 µM; read-out: Activity (%), Plk4(h)
In short: as §1

[7] = biological target: panel of human kinases (kinase named in endpoint) (Homo sapiens, UniProt P04629); conditions: 10 µM; read-out: Activity (%), TrkA(h)
In short: as §1

[8] = biological target: panel of human kinases (kinase named in endpoint) (Homo sapiens, UniProt Q92772); conditions: 10 µM; read-out: Activity (%), CDKL2(h)
In short: as §1

[9] = biological target: panel of human kinases (kinase named in endpoint) (Homo sapiens, UniProt P07332); conditions: 10 µM; read-out: Activity (%), Fes(h)
In short: as §1

[10] = biological target: panel of human kinases (kinase named in endpoint) (Homo sapiens, UniProt Q8IW41); conditions: 10 µM; read-out: Activity (%), PRAK(h)
In short: as §1

[11] = biological target: panel of human kinases (kinase named in endpoint) (Homo sapiens, UniProt P05129); conditions: 10 µM; read-out: Activity (%), PKCγ(h)
In short: as §1

[12] = biological target: panel of human kinases (kinase named in endpoint) (Homo sapiens, UniProt P53671); conditions: 10 µM; read-out: Activity (%), LIMK2(h)
In short: as §1

[13] = biological target: panel of human kinases (kinase named in endpoint) (Homo sapiens, UniProt Q96J92); conditions: 10 µM; read-out: Activity (%), WNK4(h)
In short: as §1

[14] = biological target: panel of human kinases (kinase named in endpoint) (Homo sapiens, UniProt P36897); conditions: 10 µM; read-out: Activity (%), TGFBR1(h)
In short: as §1

[15] = biological target: panel of human kinases (kinase named in endpoint) (Homo sapiens, UniProt P07333, Y969C); conditions: 10 µM; read-out: Activity (%), Fms(Y969C)(h)
In short: as §1

[16] = biological target: panel of human kinases (kinase named in endpoint) (Homo sapiens, UniProt P42685); conditions: 10 µM; read-out: Activity (%), PTK5(h)
In short: as §1

[17] = biological target: panel of human kinases (kinase named in endpoint) (Homo sapiens, UniProt P35916); conditions: 10 µM; read-out: Activity (%), Flt4(h)
In short: as §1

[18] = biological target: panel of human kinases (kinase named in endpoint) (Homo sapiens, UniProt Q6SA08); conditions: 10 µM; read-out: Activity (%), TSSK4(h)
In short: as §1

[19] = biological target: panel of human kinases (kinase named in endpoint) (Homo sapiens, UniProt P42336, H1047R); conditions: 10 µM; read-out: Activity (%), PI3 Kinase (p110a(H1047R)/p85a)(h)
In short: as §1

[20] = biological target: panel of human kinases (kinase named in endpoint) (Homo sapiens, UniProt P36888, D835Y); conditions: 10 µM; read-out: Activity (%), Flt3(D835Y)(h)
In short: as §1

[21] = biological target: panel of human kinases (kinase named in endpoint) (Homo sapiens, UniProt Q9Y2H1); conditions: 10 µM; read-out: Activity (%), NDR2(h)
In short: as §1

[22] = biological target: panel of human kinases (kinase named in endpoint) (Homo sapiens, UniProt Q14012); conditions: 10 µM; read-out: Activity (%), CaMKI(h)
In short: as §1

[23] = biological target: panel of human kinases (kinase named in endpoint) (Homo sapiens, UniProt Q9H2X6); conditions: 10 µM; read-out: Activity (%), HIPK2(h)
In short: as §1

[24] = biological target: panel of human kinases (kinase named in endpoint) (Homo sapiens, UniProt O94804); conditions: 10 µM; read-out: Activity (%), LOK(h)
In short: as §1

[25] = biological target: panel of human kinases (kinase named in endpoint) (Homo sapiens, UniProt Q00537); conditions: 10 µM; read-out: Activity (%), CDK17/cyclinY(h)
In short: as §1

Chain of panel of human kinases (kinase named in endpoint) (Homo sapiens, UniProt P42336, H1047R) (P42336 whole entry H1047R): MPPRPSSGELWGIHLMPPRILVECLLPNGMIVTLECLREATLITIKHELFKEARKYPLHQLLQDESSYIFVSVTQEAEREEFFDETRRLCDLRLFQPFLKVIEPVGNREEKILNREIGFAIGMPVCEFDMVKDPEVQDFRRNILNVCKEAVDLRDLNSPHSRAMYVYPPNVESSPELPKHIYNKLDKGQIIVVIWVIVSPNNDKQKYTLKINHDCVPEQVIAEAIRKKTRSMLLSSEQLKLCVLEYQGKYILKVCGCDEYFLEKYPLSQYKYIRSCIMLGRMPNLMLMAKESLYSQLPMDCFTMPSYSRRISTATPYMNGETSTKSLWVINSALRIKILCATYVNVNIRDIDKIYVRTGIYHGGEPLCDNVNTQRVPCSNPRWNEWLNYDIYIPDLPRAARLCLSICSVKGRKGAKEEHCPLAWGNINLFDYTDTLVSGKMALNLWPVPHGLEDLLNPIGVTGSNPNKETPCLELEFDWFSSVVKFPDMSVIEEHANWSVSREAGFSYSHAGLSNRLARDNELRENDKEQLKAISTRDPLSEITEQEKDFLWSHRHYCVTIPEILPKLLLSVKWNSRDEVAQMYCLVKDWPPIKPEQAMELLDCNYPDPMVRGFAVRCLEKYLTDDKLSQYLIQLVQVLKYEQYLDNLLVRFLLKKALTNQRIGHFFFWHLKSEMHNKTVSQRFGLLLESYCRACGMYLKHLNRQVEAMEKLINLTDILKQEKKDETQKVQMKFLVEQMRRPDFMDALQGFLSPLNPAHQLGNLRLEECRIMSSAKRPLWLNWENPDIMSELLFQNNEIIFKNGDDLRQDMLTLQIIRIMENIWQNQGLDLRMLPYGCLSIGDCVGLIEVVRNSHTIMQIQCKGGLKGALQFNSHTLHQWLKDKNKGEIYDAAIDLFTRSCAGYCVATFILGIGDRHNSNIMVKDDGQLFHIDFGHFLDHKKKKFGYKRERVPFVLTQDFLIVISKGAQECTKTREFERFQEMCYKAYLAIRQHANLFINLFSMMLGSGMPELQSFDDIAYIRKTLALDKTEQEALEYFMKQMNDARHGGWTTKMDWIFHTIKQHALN
Chain of panel of human kinases (kinase named in endpoint) (Homo sapiens, UniProt O00444) (O00444 whole entry): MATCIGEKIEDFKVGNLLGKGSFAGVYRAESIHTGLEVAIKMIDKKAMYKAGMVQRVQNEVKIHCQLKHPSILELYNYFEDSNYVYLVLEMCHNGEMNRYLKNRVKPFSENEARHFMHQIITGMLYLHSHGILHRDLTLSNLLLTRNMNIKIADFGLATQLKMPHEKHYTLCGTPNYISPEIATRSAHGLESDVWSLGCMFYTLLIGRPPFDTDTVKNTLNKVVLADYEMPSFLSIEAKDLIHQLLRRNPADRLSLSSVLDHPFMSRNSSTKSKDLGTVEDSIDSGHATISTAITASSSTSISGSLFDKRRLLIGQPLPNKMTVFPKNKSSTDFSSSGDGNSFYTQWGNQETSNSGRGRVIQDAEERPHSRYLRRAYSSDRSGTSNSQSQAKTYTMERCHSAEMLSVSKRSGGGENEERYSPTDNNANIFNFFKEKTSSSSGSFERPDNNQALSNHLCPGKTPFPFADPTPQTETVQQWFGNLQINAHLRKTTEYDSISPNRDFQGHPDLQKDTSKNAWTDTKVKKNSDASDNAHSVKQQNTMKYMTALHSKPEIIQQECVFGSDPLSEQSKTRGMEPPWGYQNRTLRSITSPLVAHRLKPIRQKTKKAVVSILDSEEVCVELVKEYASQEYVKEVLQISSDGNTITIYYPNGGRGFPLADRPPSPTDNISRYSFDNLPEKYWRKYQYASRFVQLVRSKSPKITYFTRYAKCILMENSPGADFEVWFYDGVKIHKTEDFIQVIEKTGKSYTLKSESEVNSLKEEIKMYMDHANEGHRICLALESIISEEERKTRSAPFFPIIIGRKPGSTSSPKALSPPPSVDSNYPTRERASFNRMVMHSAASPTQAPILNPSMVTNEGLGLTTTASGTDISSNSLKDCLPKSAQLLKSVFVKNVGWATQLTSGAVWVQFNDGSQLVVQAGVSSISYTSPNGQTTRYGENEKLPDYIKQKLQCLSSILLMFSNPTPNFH
Chain of panel of human kinases (kinase named in endpoint) (Homo sapiens, UniProt P53671) (P53671 whole entry): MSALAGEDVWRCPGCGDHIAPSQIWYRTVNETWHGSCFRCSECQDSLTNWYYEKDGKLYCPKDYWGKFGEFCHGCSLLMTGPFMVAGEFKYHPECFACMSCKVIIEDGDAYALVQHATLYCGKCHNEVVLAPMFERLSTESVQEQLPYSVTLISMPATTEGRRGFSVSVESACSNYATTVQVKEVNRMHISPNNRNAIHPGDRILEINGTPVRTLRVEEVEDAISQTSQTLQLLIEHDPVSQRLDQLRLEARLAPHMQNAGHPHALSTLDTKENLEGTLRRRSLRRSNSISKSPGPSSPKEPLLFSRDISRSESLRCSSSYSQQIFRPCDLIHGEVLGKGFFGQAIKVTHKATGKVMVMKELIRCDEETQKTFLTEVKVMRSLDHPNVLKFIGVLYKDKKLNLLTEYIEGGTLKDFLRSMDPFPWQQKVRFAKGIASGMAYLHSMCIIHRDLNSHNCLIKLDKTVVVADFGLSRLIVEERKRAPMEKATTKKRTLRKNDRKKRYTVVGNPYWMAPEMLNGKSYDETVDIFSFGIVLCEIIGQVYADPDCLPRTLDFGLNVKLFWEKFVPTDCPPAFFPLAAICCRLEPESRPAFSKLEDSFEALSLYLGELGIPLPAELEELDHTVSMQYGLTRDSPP
Chain of panel of human kinases (kinase named in endpoint) (Homo sapiens, UniProt P07332) (P07332 whole entry): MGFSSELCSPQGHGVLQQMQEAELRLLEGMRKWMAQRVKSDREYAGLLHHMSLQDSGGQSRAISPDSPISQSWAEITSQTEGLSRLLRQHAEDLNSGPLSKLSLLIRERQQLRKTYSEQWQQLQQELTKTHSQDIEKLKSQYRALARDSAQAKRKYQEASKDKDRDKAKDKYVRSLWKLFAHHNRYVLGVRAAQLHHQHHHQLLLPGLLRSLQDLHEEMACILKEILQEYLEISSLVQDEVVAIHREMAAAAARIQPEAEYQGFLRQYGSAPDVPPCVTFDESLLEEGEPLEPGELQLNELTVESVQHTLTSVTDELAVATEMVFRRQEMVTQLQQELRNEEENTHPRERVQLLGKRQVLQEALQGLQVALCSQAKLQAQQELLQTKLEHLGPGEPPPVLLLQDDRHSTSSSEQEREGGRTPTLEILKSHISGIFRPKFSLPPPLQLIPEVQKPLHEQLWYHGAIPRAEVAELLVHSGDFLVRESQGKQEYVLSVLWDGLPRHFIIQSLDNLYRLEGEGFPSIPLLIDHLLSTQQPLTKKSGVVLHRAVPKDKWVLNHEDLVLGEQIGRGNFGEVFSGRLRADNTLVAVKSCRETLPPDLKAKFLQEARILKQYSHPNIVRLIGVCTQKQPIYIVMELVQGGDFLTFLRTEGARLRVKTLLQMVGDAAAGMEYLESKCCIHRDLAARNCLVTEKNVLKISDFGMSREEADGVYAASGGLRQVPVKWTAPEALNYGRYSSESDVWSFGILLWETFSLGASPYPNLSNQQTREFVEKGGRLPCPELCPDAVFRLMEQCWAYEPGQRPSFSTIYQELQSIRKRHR
Chain of panel of human kinases (kinase named in endpoint) (Homo sapiens, UniProt Q8IW41) (Q8IW41 whole entry): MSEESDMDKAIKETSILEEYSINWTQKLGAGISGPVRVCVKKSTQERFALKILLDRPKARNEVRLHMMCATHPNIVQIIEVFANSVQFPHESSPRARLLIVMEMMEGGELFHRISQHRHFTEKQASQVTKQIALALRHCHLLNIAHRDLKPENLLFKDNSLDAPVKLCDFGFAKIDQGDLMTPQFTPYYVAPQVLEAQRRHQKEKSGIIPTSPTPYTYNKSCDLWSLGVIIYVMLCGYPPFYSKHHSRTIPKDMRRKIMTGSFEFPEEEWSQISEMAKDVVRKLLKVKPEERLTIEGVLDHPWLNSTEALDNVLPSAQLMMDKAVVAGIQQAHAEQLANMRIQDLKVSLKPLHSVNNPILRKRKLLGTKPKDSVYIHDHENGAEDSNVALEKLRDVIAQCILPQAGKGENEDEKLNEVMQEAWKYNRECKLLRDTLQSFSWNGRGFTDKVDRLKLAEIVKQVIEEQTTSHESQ
Chain of panel of human kinases (kinase named in endpoint) (Homo sapiens, UniProt Q00534) (Q00534 whole entry): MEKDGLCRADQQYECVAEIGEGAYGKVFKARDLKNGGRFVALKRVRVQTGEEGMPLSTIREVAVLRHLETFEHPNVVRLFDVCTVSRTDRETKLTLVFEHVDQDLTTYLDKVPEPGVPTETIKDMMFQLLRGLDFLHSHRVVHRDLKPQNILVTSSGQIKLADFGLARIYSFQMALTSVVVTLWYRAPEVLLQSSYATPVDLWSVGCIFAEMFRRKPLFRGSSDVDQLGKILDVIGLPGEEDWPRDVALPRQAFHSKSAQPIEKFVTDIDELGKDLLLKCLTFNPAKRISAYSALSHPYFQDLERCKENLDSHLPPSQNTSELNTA
Chain of panel of human kinases (kinase named in endpoint) (Homo sapiens, UniProt P36897) (P36897 34-503): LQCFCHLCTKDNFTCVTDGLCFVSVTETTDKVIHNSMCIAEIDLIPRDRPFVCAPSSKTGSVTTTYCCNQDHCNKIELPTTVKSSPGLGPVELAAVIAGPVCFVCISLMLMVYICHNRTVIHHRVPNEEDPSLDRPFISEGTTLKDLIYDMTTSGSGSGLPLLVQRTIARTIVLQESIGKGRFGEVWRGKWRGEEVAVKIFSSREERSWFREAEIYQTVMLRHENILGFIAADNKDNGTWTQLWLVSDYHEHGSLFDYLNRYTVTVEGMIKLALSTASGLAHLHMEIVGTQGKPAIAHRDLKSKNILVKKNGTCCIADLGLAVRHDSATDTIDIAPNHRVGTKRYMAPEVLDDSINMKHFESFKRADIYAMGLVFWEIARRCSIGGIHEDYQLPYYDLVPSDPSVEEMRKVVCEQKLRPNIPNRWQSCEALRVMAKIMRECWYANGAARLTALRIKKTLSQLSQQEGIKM

In the case of `CC(C)C(=O)Nc1nc2cc(-c3ccc4c(c3)c(C(=O)NC(C)c3ccccc3)cn4C)ccn2n1` (stereo not shown) [RI-962], the activity at 10 µM [1] is reported as 70%, the activity at 10 µM [2] is reported as 107% and the activity at 10 µM [3] is reported as 92%. For the same compound, the activity at 10 µM [4] was 102%, the activity at 10 µM [5] was 81% and the activity at 10 µM [6] was 88%. It also gave an activity at 10 µM [7] of 64%, an activity at 10 µM [8] of 77% and an activity at 10 µM [9] of 99%. It also gave an activity at 10 µM [10] of 64%, an activity at 10 µM [11] of 93% and an activity at 10 µM [12] of 101%. The activity at 10 µM [13] was 80%, the activity at 10 µM [14] was 98% and the activity at 10 µM [15] was 73%. It also gave an activity at 10 µM [16] of 104%, an activity at 10 µM [17] of 86% and an activity at 10 µM [18] of 104%. The activity at 10 µM [19] was 99%, the activity at 10 µM [20] was 88% and the activity at 10 µM [21] was 85%. For the same compound, the activity at 10 µM [22] was 92%, the activity at 10 µM [23] was 72% and the activity at 10 µM [24] was 108%. For the same compound, the activity at 10 µM [25] was 124%.
